# Experimental data from article PMC10578352, “Identification of a Protein Arginine Methyltransferase 7 (PRMT7)/Protein Arginine Methyltransferase 9 (PRMT9) Inhibitor” (Journal of Medicinal Chemistry, 2023).
# Biological target: T1, human recombinant PRMT9 (Homo sapiens, UniProt Q6P2P2)
# T1 construct: human recombinant PRMT9 (2–845; N-terminal FLAG-tag, C-terminal His6-tag); FLAG (N); His6 (C); purchased BPS BioScience 79124
# T1 sequence (Q6P2P2 2-845): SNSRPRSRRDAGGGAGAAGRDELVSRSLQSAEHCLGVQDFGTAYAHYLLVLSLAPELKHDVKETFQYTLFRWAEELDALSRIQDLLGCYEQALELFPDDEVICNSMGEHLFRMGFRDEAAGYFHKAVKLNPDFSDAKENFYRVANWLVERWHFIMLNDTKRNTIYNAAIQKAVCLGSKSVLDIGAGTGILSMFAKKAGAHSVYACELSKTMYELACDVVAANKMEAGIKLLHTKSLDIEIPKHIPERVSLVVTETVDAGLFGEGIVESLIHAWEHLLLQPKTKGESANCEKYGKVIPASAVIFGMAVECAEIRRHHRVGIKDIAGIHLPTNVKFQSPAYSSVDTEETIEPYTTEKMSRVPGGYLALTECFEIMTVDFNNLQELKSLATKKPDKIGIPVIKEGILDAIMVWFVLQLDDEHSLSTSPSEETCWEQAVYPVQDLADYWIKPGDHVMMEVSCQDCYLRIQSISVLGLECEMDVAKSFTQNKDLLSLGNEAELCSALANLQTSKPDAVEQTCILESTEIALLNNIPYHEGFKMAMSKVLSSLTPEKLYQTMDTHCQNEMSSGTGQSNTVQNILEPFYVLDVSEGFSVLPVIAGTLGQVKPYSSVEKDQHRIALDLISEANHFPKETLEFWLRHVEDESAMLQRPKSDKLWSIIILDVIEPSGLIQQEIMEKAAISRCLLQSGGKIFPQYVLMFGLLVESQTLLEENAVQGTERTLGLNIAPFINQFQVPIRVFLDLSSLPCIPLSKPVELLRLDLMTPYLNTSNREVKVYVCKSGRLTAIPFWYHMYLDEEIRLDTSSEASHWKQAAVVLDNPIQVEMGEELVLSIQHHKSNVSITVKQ
# Test: AlphaLISA PRMT9 activity assay (modified BPS kit, biotinylated SF3B2 peptide)
# Assay type: biochemical
# Settings: PRMT9 0.105 μM, biotinylated SF3B2 (500–519) peptide 100 nM, SAM 25 μM
# Method: Accordingly, all the enzymatic inhibition data were obtained by performing the assays in these optimized conditions.
# The reaction was incubated for 60 min. Afterward, in each well, 5 μL of a 1:100 dilution of Primary antibody 28 (BPS BioScience, #52140Z3) in Detection buffer (BPS BioScience) and 5 μL of anti-Rabbit acceptor beads (PerkinElmer, #AL104C) were added to obtain a final concentration of 20 μg/mL.
# For each incubation step, the OptiPlate was sealed with a protective foil to prevent evaporation and contamination. Donor and Acceptor beads were added to the mixture in subdued light.
# The 100% activity (positive control) was reached using vehicle (DMSO), while 0% activity (negative control) was obtained without the protein. Data were analyzed by using Excel and Prism software. Values obtained for each compound are mean ± SD determined for three separate experiments.
row,IC50,SMILES
1,890 nM,COC(=O)c1cc(O)c2cc(NC(=O)NCCCNC(=N)NC[C@H]3O[C@@H](n4cnc5c(N)ncnc54)[C@H](O)[C@@H]3O)ccc2c1 [1a]
2,200 nM,"COC(=O)c1cc(O)c2cc(NC(=O)NCCCNC(=N)NC[C@H]3O[C@@H](n4cnc5c(N)ncnc54)[C@H](O)[C@@H]3O)cc(C(F)(F)F)c2c1 [1j, Methyl 6-(3-(3-(3-(((2R,3S,4R,5R)-5-(6-Amino-9H-purin-9-yl)-3,4-dihydroxytetrahydrofuran-2-yl)methyl)guanidino)propyl)ureido)-4-hydroxy-8-(trifluoromethyl)-2-naphthoate]"
3,5800 nM,COC(=O)c1cc(O)c2cc(NC(=O)NCCCCCNC(=N)NC[C@H]3O[C@@H](n4cnc5c(N)ncnc54)[C@H](O)[C@@H]3O)ccc2c1 [1c]
4,1320 nM,COC(=O)c1cc(O)c2cc(NC(=O)NCCCCNC(=N)NC[C@H]3O[C@@H](n4cnc5c(N)ncnc54)[C@H](O)[C@@H]3O)ccc2c1 [1b]
